Laboratory results: US8916570B2 (The United States of America, as represented by the …, priority 2008, dated 2014)
Positions count from the first letter of the chain named. Read-outs that look alike come from different tables or passages of the source. Marks after values point to notes of the source that are not given here.

Key:
[1] = molecular target: T1, human A2A adenosine receptor (Homo sapiens, UniProt P29274); parameters: expressed in transfected cells; details: species H (human), cited from earlier work; for Ki: data from Tchilibon et al. or Kim et al.; for A2A % inhib.: percent inhibition at 10 μM, data from Tchilibon et al.
[2] = molecular target: T2, human A1 adenosine receptor (Homo sapiens, UniProt P30542); parameters: expressed in transfected cells; host or cells: CHO; details: species H (human); data from Tchilibon et al. or Kim et al.; cited from earlier work
T2 sequence (P30542 1-326): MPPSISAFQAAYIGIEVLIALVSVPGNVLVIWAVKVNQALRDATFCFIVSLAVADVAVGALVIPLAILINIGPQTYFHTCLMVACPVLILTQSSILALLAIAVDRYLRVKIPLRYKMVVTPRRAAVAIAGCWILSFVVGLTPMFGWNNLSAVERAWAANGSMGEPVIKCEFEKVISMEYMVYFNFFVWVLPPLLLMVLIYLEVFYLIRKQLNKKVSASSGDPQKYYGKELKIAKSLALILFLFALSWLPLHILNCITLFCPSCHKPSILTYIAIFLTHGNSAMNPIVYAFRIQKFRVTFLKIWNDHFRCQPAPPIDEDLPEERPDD

hA1AR [3] = molecular target: T3, hA1AR (Homo sapiens, UniProt P30542); details: values from the literature (footnotes c, d); read-out: Affinity (Ki, nM) hA1; cited from earlier work
T3 construct: expressed in transfected cells; host or cells: CHO
T3 sequence (P30542 1-326): T2 sequence (P30542 1-326)

[4] = molecular target: mouse A2A adenosine receptor (Mus musculus, UniProt Q60613); experiment: Competition radioligand binding, mouse A2A AR, HEK293 membranes (Table 1); details: for Ki: read-out: A2A Ki, [3H]CGS21680
[5] = molecular target: T4, mouse A1 adenosine receptor (Mus musculus, UniProt Q60612); experiment: Competition radioligand binding, mouse A1 AR, HEK293 membranes (Table 1); details: read-out: A1 Ki; species M (mouse); [125I]I-AB-MECA; mean ± SEM
T4 sequence (Q60612 1-326): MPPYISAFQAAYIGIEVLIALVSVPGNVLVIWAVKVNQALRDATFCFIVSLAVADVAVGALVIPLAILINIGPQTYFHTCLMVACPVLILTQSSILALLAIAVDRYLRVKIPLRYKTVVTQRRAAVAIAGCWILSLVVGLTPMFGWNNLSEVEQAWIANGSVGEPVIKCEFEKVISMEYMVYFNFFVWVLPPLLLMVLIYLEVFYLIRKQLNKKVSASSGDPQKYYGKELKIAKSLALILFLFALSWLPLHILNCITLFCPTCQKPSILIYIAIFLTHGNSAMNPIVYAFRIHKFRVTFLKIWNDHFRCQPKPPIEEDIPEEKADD

mA2AAR = molecular target: T5, mA2AAR (Mus musculus, UniProt Q60613); details: values from Melman et al., cited from earlier work
T5 construct: expressed in transfected cells

hA2AAR [6] = molecular target: T6, hA2AAR (Homo sapiens, UniProt P29274); details: cited from earlier work; for % inhibition hA2A: inhibition of radioligand binding at 10 μM, values from the literature
T6 construct: expressed in transfected cells

[7] = molecular target: T7, mouse A3 adenosine receptor (Mus musculus, UniProt Q61618); experiment: Competition radioligand binding, mouse A3 AR, HEK293 membranes (Table 1); details: for Ki: read-out: A3 Ki, species M (mouse), [125I]I-AB-MECA
T7 sequence (Q61618 1-319): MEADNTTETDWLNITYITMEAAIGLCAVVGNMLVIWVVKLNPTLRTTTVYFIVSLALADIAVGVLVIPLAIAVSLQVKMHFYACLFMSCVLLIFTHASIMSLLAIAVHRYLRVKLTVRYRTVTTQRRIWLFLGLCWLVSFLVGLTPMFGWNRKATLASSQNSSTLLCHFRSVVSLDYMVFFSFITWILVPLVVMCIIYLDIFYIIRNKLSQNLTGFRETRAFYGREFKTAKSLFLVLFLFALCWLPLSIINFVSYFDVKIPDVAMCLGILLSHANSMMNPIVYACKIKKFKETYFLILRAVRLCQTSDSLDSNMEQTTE

mA3AR [8] = molecular target: T8, mA3AR (Mus musculus, UniProt Q61618); details: values from Melman et al.; read-out: Affinity (Ki, nM) mA3; cited from earlier work
T8 construct: expressed in transfected cells
T8 sequence (Q61618 1-319): T7 sequence (Q61618 1-319)

rat A3 AR [9] = molecular target: T9, rat A3 AR (Rattus norvegicus, UniProt P28647); details: species R (rat); data from Tchilibon et al. / Lee et al.; cited from earlier work
T9 sequence (P28647 1-320): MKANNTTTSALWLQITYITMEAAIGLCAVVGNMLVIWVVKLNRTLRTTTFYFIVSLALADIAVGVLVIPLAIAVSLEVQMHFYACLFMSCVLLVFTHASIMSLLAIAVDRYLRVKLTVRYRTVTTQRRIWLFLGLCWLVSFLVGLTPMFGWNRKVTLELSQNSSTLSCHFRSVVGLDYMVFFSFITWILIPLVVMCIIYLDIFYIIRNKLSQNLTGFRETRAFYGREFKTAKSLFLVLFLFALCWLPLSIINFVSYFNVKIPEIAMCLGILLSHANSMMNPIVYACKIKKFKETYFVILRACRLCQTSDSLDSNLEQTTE

mA1AR [10] = molecular target: T10, mA1AR (Mus musculus, UniProt Q60612); details: values from Melman et al.; read-out: Affinity (Ki, nM) mA1; cited from earlier work
T10 construct: expressed in transfected cells
T10 sequence (Q60612 1-326): T4 sequence (Q60612 1-326)

mA1AR [11] = molecular target: T10, mA1AR; experiment: Competition binding at mA1AR, HEK293 membranes (Example 8); details: percent in parentheses, concentration not given
mA3AR [12] = molecular target: T8, mA3AR; experiment: Competition binding at mA3AR, HEK293 membranes (Example 8); details: read-out: Affinity (Ki, nM) mA3
hA3AR = molecular target: T11, hA3AR (Homo sapiens, UniProt P0DMS8); experiment: Binding at hA3AR, CHO membranes (Example 7); details: read-out: Affinity (Ki, nM) hA3
T11 construct: expressed in transfected cells; host or cells: CHO
T11 sequence (P0DMS8 1-318): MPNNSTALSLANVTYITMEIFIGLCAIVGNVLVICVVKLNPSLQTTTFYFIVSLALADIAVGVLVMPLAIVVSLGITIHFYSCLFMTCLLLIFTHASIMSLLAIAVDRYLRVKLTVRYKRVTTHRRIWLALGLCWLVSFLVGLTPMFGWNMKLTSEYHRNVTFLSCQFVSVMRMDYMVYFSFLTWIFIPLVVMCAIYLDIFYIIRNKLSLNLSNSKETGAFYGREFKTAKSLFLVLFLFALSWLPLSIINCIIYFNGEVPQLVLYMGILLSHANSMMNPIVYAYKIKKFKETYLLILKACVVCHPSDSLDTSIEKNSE
Description: (§1) CHO cells stably expressing the recombinant hA1, hA3, and rA3Rs, and HEK-293 cells stably expressing the hA2AAR were cultured in Dulbecco's modified Eagle medium (DMEM) and F12 (1:1) supplemented with 10% fetal bovine serum, 100 units/mL penicillin, 100 μg/mL streptomycin, and 2 μmol/mL glutamine. In addition, 800 μg/mL geneticin was added to the A2A media, while 500 μg/mL hygromycin was added to the A1 and A3 media. After harvesting, cells were homogenized and suspended in PBS. Cells were then centrifuged at 240 g for 5 min, and the pellet was resuspended in 50 mM Tris-HCl buffer (pH 7.5) containing 10 mM MgCl2. The suspension was homogenized and was then ultra-centrifuged at 14,330 g for 30 min at 4° C. […] The protein concentration was measured using the BCA Protein Assay Kit from Pierce Biotechnology, Inc. (Rockford, Ill.).
(§2) Into each tube in the binding assay was added 50 μL of increasing concentrations of the test ligand in Tris-HCl buffer (50 mM, pH 7.5) containing 10 mM MgCl2, 50 μL of the appropriate agonist radioligand, and finally 100 μL of membrane suspension. […] For the A2AAR (20 μg/tube) the radioligand used was [^3H]53 (10 nM). […] Nonspecific binding was determined using a final concentration of 10 μM 51 diluted with the buffer. The mixtures were incubated at 25° C. for 60 min in a shaking water bath. Binding reactions were terminated by filtration through Brandel GF/B filters under a reduced pressure using a M-24 cell harvester (Brandel, Gaithersburg, Md.). Filters were washed three times with 3 mL of 50 mM ice-cold Tris-HCl buffer (pH 7.5). […] Filters for A3AR binding were counted using a Packard COBRA™ II γ-counter. The Ki values were determined using GraphPad Prism for all assays.

hA1AR [13] = molecular target: T3, hA1AR; experiment: Binding at hA1AR, CHO membranes (Example 7); details: read-out: % inhibition hA1
Description: as §1, §2

hA2AAR [14] = molecular target: T6, hA2AAR; experiment: Binding at hA2AAR, HEK-293 membranes (Example 7); details: read-out: % inhibition hA2A
Description: After harvesting, cells were homogenized and suspended in PBS.
Nonspecific binding was determined using a final concentration of 10 μM 51 diluted with the buffer.

[15] = molecular target: T1, human A2A adenosine receptor; experiment: Radioligand binding, human A2A AR (Table 1); details: species H (human); percent inhibition at 10 μM
rat A2A AR = rat A2A AR (Rattus norvegicus, UniProt P30543); details: species R (rat); data from Lee et al.; cited from earlier work
rat A1 AR = molecular target: T12, rat A1 AR (Rattus norvegicus, UniProt P25099); details: species R (rat); data from Lee et al.; cited from earlier work
T12 sequence (P25099 1-326): T4 sequence (Q60612 1-326) with E151V, A155D, I157R, E316D, I319L, D325E

[16] = molecular target: T2, human A1 adenosine receptor; experiment: Radioligand binding, human A1 AR, CHO membranes (Table 1); details: read-out: A1 Ki; species H (human)
rat A3 AR [17] = molecular target: T9, rat A3 AR; experiment: Radioligand binding, rat A3 AR (Table 1); details: species R (rat)
human A3 receptor = molecular target: T13, human A3 receptor (Homo sapiens, UniProt P0DMS8); experiment: Binding assay at the human A3 receptor, CHO membranes (Example 4)
T13 sequence (P0DMS8 1-318): T11 sequence (P0DMS8 1-318)
Description: Cell culture and membrane preparation: CHO (Chinese hamster ovary) cells expressing the recombinant human A3AR were cultured in DMEM (Dulbecco's modified Eagle's medium) supplemented with 10% fetal bovine serum, 100 units/mL penicillin, 100 μg/mL streptomycin, 2 μmol/mL glutamine and 800 μg/mL geneticin. The CHO cells expressing rat A3ARs were cultured in DMEM and F12 (1:1). Cells were harvested by trypsinization. After homogenization and suspension, cell membranes were centrifuged at 500 g for 10 min, and the pellet was re-suspended in 50 mM Tris.HCl buffer (pH 8.0) containing 10 mM MgCl2, 1 mM EDTA and 0.1 mg/mL CHAPS (3[(3-cholamidopropyl)dimethylammonio]-propanesulfonic acid). […] The protein concentration was measured using the Bradford assay.
The mixtures were incubated at 37° C. for 60 min. Binding reactions were terminated by filtration through Whatman GF/B filters under reduced pressure using a MT-24 cell harvester (Brandell, Gaithersburgh, Md., USA). Filters were washed three times with 9 mL ice-cold buffer. Radioactivity was determined in a Beckman 5500B γ-counter.

Chain of mouse A2A adenosine receptor (Q60613 whole entry): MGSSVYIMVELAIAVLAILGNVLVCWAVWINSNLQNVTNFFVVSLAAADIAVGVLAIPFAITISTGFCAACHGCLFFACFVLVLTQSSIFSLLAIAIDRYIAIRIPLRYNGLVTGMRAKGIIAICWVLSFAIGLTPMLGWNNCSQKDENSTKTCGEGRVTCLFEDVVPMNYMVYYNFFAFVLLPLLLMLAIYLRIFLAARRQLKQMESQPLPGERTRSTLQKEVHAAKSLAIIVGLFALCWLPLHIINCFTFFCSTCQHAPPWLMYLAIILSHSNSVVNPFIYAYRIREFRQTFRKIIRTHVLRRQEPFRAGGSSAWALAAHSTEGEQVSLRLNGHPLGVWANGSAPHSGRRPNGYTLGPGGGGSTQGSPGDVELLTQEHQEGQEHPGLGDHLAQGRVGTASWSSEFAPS
T1 sequence (P29274 whole entry): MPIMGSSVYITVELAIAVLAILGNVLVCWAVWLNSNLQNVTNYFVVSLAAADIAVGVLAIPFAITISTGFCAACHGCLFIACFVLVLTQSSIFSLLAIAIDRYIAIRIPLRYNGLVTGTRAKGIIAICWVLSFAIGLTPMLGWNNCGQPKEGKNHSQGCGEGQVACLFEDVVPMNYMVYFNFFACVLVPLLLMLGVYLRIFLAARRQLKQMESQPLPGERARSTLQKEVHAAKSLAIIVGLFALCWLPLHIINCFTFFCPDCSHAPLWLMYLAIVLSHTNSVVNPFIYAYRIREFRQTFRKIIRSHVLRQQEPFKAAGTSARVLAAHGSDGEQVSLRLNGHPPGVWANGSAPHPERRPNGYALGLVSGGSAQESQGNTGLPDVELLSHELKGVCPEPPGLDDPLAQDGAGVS
T6 sequence (P29274 whole entry): as above
T5 sequence (Q60613 whole entry): as the sequence (Q60613 whole entry) above
Chain of rat A2A AR (P30543 whole entry): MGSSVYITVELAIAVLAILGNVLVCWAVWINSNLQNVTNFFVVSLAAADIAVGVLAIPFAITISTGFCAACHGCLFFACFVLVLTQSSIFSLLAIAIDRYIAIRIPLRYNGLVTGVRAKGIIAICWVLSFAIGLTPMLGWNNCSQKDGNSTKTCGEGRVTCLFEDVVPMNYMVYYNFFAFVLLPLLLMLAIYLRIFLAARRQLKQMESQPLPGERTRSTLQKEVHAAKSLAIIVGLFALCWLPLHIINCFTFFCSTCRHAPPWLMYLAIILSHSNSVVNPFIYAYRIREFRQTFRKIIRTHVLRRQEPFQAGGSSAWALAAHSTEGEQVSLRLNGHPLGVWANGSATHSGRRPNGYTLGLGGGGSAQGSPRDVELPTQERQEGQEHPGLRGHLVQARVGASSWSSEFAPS

For `CNC(=O)[C@@]12C[C@@H]1[C@@H](n1cnc3c(NCc4cccc(Cl)c4)nc(Cl)nc31)[C@H](O)[C@@H]2O` [Compound 13], the Ki [1] is listed as 2.3 ± 0.1 µM, the Ki [2] is listed as 0.26 ± 0.06 µM and the Ki (hA1AR [3]) is listed as 260 ± 60 nM. The Ki ([4]; species M (mouse)) was 10.4 ± 1.7 µM, the Ki [5] was 0.0153 ± 0.0058 µM and the Ki (mA2AAR; read-out: Affinity (Ki, nM) mA2A) was 10400 nM. The Ki (hA2AAR [6]; values from the literature (footnotes c, d), read-out: Affinity (Ki, nM) hA2A) was 2300 ± 100 nM, the Ki [7] was 0.00149 ± 0.00046 µM and the Ki (mA3AR [8]) was 1.49 ± 0.46 nM. For the same compound, the Ki (rat A3 AR [9]) was 0.001 µM and the Ki (mA1AR [10]) was 15.3 ± 5.8 nM.
With `CNC(=O)[C@@]12C[C@@H]1[C@@H](n1cnc3c(NC)nc(C#Cc4ccc(F)cc4)nc31)[C@H](O)[C@@H]2O` [Compound 313, (1S,2R,3S,4R,5S)-4-(2-((4-Fluorophenyl)ethynyl)-6-(methylamino)-9H-purin-9-yl)-2,3-dihydroxy-N-methylbicyclo[3.1.0]hexane-1-carboxamide] the “% inhibition mA1” value (mA1AR [11]) was “(25%)”, the Ki (mA3AR [12]) was 66 nM and the Ki (hA3AR) was 0.53 ± 0.09 nM. For the same compound, the inhibition at 10 µM (hA1AR [13]) was 27% and the inhibition at 10 µM (hA2AAR [14]) was 19%.
For `CCCC#Cc1nc(NCc2cccc(Cl)c2)c2ncn([C@@H]3[C@H](O)[C@H](O)[C@]4(C(=O)NC)C[C@H]34)c2n1` [Compound 5, (1′S,2′R,3′S,4′S,5′S)-4′-[6-(3-Chlorobenzylamino)-2-(1-pentynyl)-9-yl]-2′,3′-dihydroxybicyclo[3.1.0]hexane-1′-carboxylic acid N-methylamide], the A2A % inhib. ([4]; species M (mouse), percent inhibition at 100 μM) is listed as “(42%)^i”, the A2A % inhib. [15] is listed as “(80%)^f” and the “% inhibition mA2A” value (mA2AAR; concentration not defined (mark ^1)) is listed as “(42%)^1”. The “% inhibition hA2A” value (hA2AAR [6]) was “(80%)”.
For `CNC(=O)[C@@]12C[C@@H]1[C@@H](n1cnc3c(NC)nc(Cl)nc31)[C@H](O)[C@@H]2O` [Compound 12], the A2A % inhib. [1] is listed as “(6%)^d,f”, the Ki (hA1AR [3]) is listed as 2100 ± 1700 nM and the Ki (rat A2A AR) is listed as greater than 10 µM. The Ki (rat A1 AR) was 0.805 µM, the Ki [5] was 0.0553 ± 0.006 µM and the “% inhibition hA2A” value (hA2AAR [6]) was “(6%)”. The Ki [7] was 0.049 ± 0.0039 µM, the Ki [16] was 2.01 ± 1.7 µM and the Ki (mA3AR [8]) was 49 ± 3.9 nM. The Ki (rat A3 AR [9]) was 0.16 ± 0.03 µM and the Ki (mA1AR [10]) was 55.3 ± 6 nM.
For `CNC(=O)C12CC1C(n1cnc3c(NCc4cccc(C#CCO)c4)nc(Cl)nc31)C(O)C2O` (stereo not drawn) [Compound 16], the A2A % inhib. [1] is given as “(56%)^f” and the inhibition at 100 µM ([4]; read-out: A2A % inhib.) is given as 11%.
For `CNC(=O)[C@@]12C[C@@H]1[C@@H](n1cnc3c(NCc4cccc(Br)c4)nc(Cl)nc31)[C@H](O)[C@@H]2O` [Compound 14], the Ki [1] is given as 1.3 µM, the Ki [2] is given as 0.27 µM and the Ki (rat A3 AR [17]) is given as 0.00076 µM. The Ki ([4]; species M (mouse)) was 6.39 ± 0.87 µM, the Ki [5] was 0.00879 ± 0.00012 µM and the “Selectivity A1/A3” value ([7]; mouse) was 9.8. The Ki [7] was 0.0009 ± 0.00022 µM.
For `O[C@@H]1[C@H](O)[C@@H]2C[C@@H]2[C@H]1n1cnc2c(Nc3cccc4ccccc34)nc(Cl)nc21` [Compound 110b, (1′R,2′R,3′S, 4′R,5′S)-4′-[2-Chloro-6-(1-naphthylamino)purine]-2′,3′-O-dihydroxybicyclo[3.1.0]hexane], the “binding to the A3AR (in words)” value (human A3 receptor) was “nanomolar binding affinity”.
With `CNC(=O)[C@@]12C[C@@H]1[C@@H](n1cnc3c(NC)nc(C#Cc4ccccc4Cl)nc31)[C@H](O)[C@@H]2O` [Compound 314, (1S,2R,3S,4R,5S)-4-(2-((2-Chlorophenyl)ethynyl)-6-(methylamino)-9H-purin-9-yl)-2,3-dihydroxy-N-methylbicyclo[3.1.0]hexane-1-carboxamide] the “% inhibition mA1” value (mA1AR [11]) was “(45%)”, the Ki (mA3AR [12]) was 55 nM and the Ki (hA3AR) was 0.58 ± 0.04 nM. The inhibition at 10 µM (hA1AR [13]) was 22% and the inhibition at 10 µM (hA2AAR [14]) was 30%.
For `CNC(=O)[C@@]12C[C@@H]1[C@@H](n1cnc3c(NCc4cccc(Cl)c4)nc(C#Cc4ccc(N)cc4)nc31)[C@H](O)[C@@H]2O` [Compound 332a, (1S,2R,3S,4R,5S)-4-(2-((4-Aminophenyl)ethynyl)-6-(3-chlorobenzylamino)-9H-purin-9-yl)-2,3-dihydroxy-N-methylbicyclo[3.1.0]hexane-1-carboxamide], the “% inhibition mA1” value (mA1AR [11]) was “(93%)”, the Ki (mA3AR [12]) was 17 nM and the Ki (hA3AR) was 2.27 ± 0.7 nM. For the same compound, the inhibition at 10 µM (hA1AR [13]) was 2% and the inhibition at 10 µM (hA2AAR [14]) was 44%.
